Data reported in PubChem BioAssay AID250 (DTP/NCI, 2004).
Where “and” joins values, the source holds several entries; their conditions need not be identical. Equal values may be shown once. Toxic doses and inconclusive results are not listed.

Tested on: BDF1 mice, L1210 leukemia sc, survival T/C
Assay: NCI In Vivo Anticancer Drug Screen. Data for tumor model L1210 Leukemia (subcutaneous) in B6D2F1 (BDF1) mice
Details: higher = longer survival
In short: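 Transplantable tumor-bearing mice; survival or tumor size recorded; result = T/C, treated vs vehicle control.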

## S=c1nc[nH]c2nc[nH]c12
endpoint: mean survival time, dose: 60.0 mg/kg/injection, schedule: Q01DX001 (ip), vehicle: saline
  T/C: 106 % of control
endpoint: mean survival time, dose: 90.0 mg/kg/injection, schedule: Q01DX001 (ip), vehicle: saline
  T/C: 110 % of control
endpoint: mean survival time, dose: 120.0 mg/kg/injection, schedule: Q01DX001 (ip), vehicle: saline
  T/C: 110 % of control
endpoint: mean survival time, dose: 240.0 mg/kg/injection, schedule: Q01DX001 (ip), vehicle: saline
  T/C: 116 % of control
endpoint: median survival time, dose: 0.65 mg/kg/injection, schedule: Q02DX Z (sc), vehicle: other
  T/C: 116 % of control
endpoint: median survival time, dose: 5.0 mg/kg/injection, schedule: Q01DX009 (sc), vehicle: other
  T/C: 109 % of control
endpoint: median survival time, dose: 5.0 mg/kg/injection, schedule: Q## X Z (sc), vehicle: other
  T/C: 105 % of control
endpoint: median survival time, dose: 10.0 mg/kg/injection, schedule: Q01DX009 (sc), vehicle: other
  T/C: 113 % of control
endpoint: median survival time, dose: 10.0 mg/kg/injection, schedule: Q01DX Z (sc), vehicle: methylcellulose (MC)
  T/C: 105 % of control
endpoint: median survival time, dose: 12.5 mg/kg/injection, schedule: Q01DX012 (ip), vehicle: other
  T/C: 122 % of control
endpoint: median survival time, dose: 14.0 mg/kg/injection, schedule: Q01DX Z (ip), vehicle: other
  T/C: 100 % of control
endpoint: median survival time, dose: 14.0 mg/kg/injection, schedule: Q01DX Z (oral), vehicle: methylcellulose (MC)
  T/C: 100 % of control and 104 % of control
endpoint: median survival time, dose: 14.0 mg/kg/injection, schedule: Q01DX Z (sc), vehicle: other
  T/C: 100 % of control (2×) and 110 % of control
endpoint: median survival time, dose: 14.0 mg/kg/injection, schedule: Q#A X Z (sc), vehicle: other
  T/C: 105 % of control and 115 % of control
endpoint: median survival time, dose: 17.0 mg/kg/injection, schedule: Q01DX Z (oral), vehicle: methylcellulose (MC)
  T/C: 95 % of control
endpoint: median survival time, dose: 17.0 mg/kg/injection, schedule: Q01DX Z (sc), vehicle: methylcellulose (MC)
  T/C: 100 % of control and 110 % of control
endpoint: median survival time, dose: 20.0 mg/kg/injection, schedule: Q01DX009 (sc), vehicle: other
  T/C: 124 % of control
endpoint: median survival time, dose: 23.0 mg/kg/injection, schedule: Q01DX Z (ip), vehicle: other
  T/C: 100 % of control
endpoint: median survival time, dose: 23.0 mg/kg/injection, schedule: Q01DX Z (oral), vehicle: methylcellulose (MC)
  T/C: 100 % of control
endpoint: median survival time, dose: 23.0 mg/kg/injection, schedule: Q01DX Z (sc), vehicle: methylcellulose (MC)
  T/C: 109 % of control
endpoint: median survival time, dose: 23.0 mg/kg/injection, schedule: Q02DX Z (sc), vehicle: other
  T/C: 94 % of control
endpoint: median survival time, dose: 23.0 mg/kg/injection, schedule: Q#A X Z (sc), vehicle: other
  T/C: 105 % of control
endpoint: median survival time, dose: 28.0 mg/kg/injection, schedule: Q01DX Z (oral), vehicle: methylcellulose (MC)
  T/C: 100 % of control
endpoint: median survival time, dose: 28.0 mg/kg/injection, schedule: Q01DX Z (sc), vehicle: methylcellulose (MC)
  T/C: 109 % of control
endpoint: median survival time, dose: 28.0 mg/kg/injection, schedule: Q01DX Z (sc), vehicle: other
  T/C: 110 % of control
endpoint: median survival time, dose: 38.9 mg/kg/injection, schedule: Q01DX Z (sc), vehicle: methylcellulose (MC)
  T/C: 150 % of control
endpoint: median survival time, dose: 38.9 mg/kg/injection, schedule: Q01DX Z (sc), vehicle: other
  T/C: 100 % of control and 105 % of control
endpoint: median survival time, dose: 39.0 mg/kg/injection, schedule: Q01DX001 (sc), vehicle: other
  T/C: 105 % of control
endpoint: median survival time, dose: 39.0 mg/kg/injection, schedule: Q01DX Z (ip), vehicle: other
  T/C: 110 % of control
endpoint: median survival time, dose: 39.0 mg/kg/injection, schedule: Q01DX Z (oral), vehicle: methylcellulose (MC)
  T/C: 104 % of control
endpoint: median survival time, dose: 39.0 mg/kg/injection, schedule: Q02DX Z (sc), vehicle: other
  T/C: 105 % of control
endpoint: median survival time, dose: 39.0 mg/kg/injection, schedule: Q07DX Z (sc), vehicle: other
  T/C: 105 % of control
endpoint: median survival time, dose: 39.0 mg/kg/injection, schedule: Q## X Z (sc), vehicle: other
  T/C: 100 % of control
endpoint: median survival time, dose: 39.0 mg/kg/injection, schedule: Q#A X Z (sc), vehicle: other
  T/C: 110 % of control
endpoint: median survival time, dose: 47.0 mg/kg/injection, schedule: Q01DX Z (oral), vehicle: methylcellulose (MC)
  T/C: 104 % of control
endpoint: median survival time, dose: 47.0 mg/kg/injection, schedule: Q01DX Z (sc), vehicle: other
  T/C: 110 % of control
endpoint: median survival time, dose: 50.0 mg/kg/injection, schedule: Q01DX012 (ip), vehicle: other
  T/C: 155 % of control
endpoint: median survival time, dose: 60.0 mg/kg/injection, schedule: Q01DX001 (ip), vehicle: saline
  T/C: 100 % of control
endpoint: median survival time, dose: 64.8 mg/kg/injection, schedule: Q01DX Z (sc), vehicle: other
  T/C: 150 % of control
endpoint: median survival time, dose: 65.0 mg/kg/injection, schedule: Q01DX001 (sc), vehicle: other
  T/C: 105 % of control and 115 % of control
endpoint: median survival time, dose: 65.0 mg/kg/injection, schedule: Q01DX Z (oral), vehicle: methylcellulose (MC)
  T/C: 104 % of control and 115 % of control
endpoint: median survival time, dose: 65.0 mg/kg/injection, schedule: Q01DX Z (sc), vehicle: methylcellulose (MC)
  T/C: 154 % of control
endpoint: median survival time, dose: 65.0 mg/kg/injection, schedule: Q02DX Z (sc), vehicle: other
  T/C: 105 % of control and 115 % of control
endpoint: median survival time, dose: 65.0 mg/kg/injection, schedule: Q07DX Z (sc), vehicle: other
  T/C: 105 % of control and 115 % of control
endpoint: median survival time, dose: 65.0 mg/kg/injection, schedule: Q## X Z (sc), vehicle: other
  T/C: 100 % of control
endpoint: median survival time, dose: 78.0 mg/kg/injection, schedule: Q01DX Z (oral), vehicle: methylcellulose (MC)
  T/C: 113 % of control
endpoint: median survival time, dose: 78.0 mg/kg/injection, schedule: Q01DX Z (sc), vehicle: other
  T/C: 155 % of control
endpoint: median survival time, dose: 80.0 mg/kg/injection, schedule: Q01DX009 (ip), vehicle: other
  T/C: 150 % of control
endpoint: median survival time, dose: 80.0 mg/kg/injection, schedule: Q01DX009 (sc), vehicle: other
  T/C: 155 % of control
endpoint: median survival time, dose: 90.0 mg/kg/injection, schedule: Q01DX001 (ip), vehicle: saline
  T/C: 110 % of control
endpoint: median survival time, dose: 108.0 mg/kg/injection, schedule: Q01DX001 (sc), vehicle: other
  T/C: 115 % of control
endpoint: median survival time, dose: 108.0 mg/kg/injection, schedule: Q01DX Z (ip), vehicle: other
  T/C: 155 % of control
endpoint: median survival time, dose: 108.0 mg/kg/injection, schedule: Q01DX Z (oral), vehicle: methylcellulose (MC)
  T/C: 105 % of control and 118 % of control
endpoint: median survival time, dose: 108.0 mg/kg/injection, schedule: Q02DX Z (sc), vehicle: other
  T/C: 152 % of control
endpoint: median survival time, dose: 108.0 mg/kg/injection, schedule: Q07DX Z (sc), vehicle: other
  T/C: 115 % of control
endpoint: median survival time, dose: 108.0 mg/kg/injection, schedule: Q## X Z (sc), vehicle: other
  T/C: 115 % of control
endpoint: median survival time, dose: 120.0 mg/kg/injection, schedule: Q01DX001 (ip), vehicle: saline
  T/C: 110 % of control
endpoint: median survival time, dose: 130.0 mg/kg/injection, schedule: Q01DX Z (sc), vehicle: methylcellulose (MC)
  T/C: 109 % of control
endpoint: median survival time, dose: 130.0 mg/kg/injection, schedule: Q01DX Z (sc), vehicle: other
  T/C: 150 % of control
endpoint: median survival time, dose: 160.0 mg/kg/injection, schedule: Q01DX009 (sc), vehicle: other
  T/C: 102 % of control
endpoint: median survival time, dose: 180.0 mg/kg/injection, schedule: Q01DX001 (sc), vehicle: other
  T/C: 121 % of control
endpoint: median survival time, dose: 180.0 mg/kg/injection, schedule: Q01DX Z (oral), vehicle: methylcellulose (MC)
  T/C: 150 % of control
endpoint: median survival time, dose: 180.0 mg/kg/injection, schedule: Q07DX Z (sc), vehicle: other
  T/C: 121 % of control
endpoint: median survival time, dose: 200.0 mg/kg/injection, schedule: Q01DX012 (ip), vehicle: other
  T/C: 100 % of control
endpoint: median survival time, dose: 216.0 mg/kg/injection, schedule: Q01DX Z (oral), vehicle: methylcellulose (MC)
  T/C: 109 % of control
endpoint: median survival time, dose: 216.0 mg/kg/injection, schedule: Q01DX Z (sc), vehicle: methylcellulose (MC)
  T/C: 109 % of control
endpoint: median survival time, dose: 216.0 mg/kg/injection, schedule: Q01DX Z (sc), vehicle: other
  T/C: 150 % of control
endpoint: median survival time, dose: 240.0 mg/kg/injection, schedule: Q01DX001 (ip), vehicle: saline
  T/C: 110 % of control
endpoint: median survival time, dose: 300.0 mg/kg/injection, schedule: Q01DX Z (oral), vehicle: methylcellulose (MC)
  T/C: 150 % of control and 154 % of control
endpoint: median survival time, dose: 300.0 mg/kg/injection, schedule: Q01DX Z (sc), vehicle: methylcellulose (MC)
  T/C: 120 % of control
endpoint: median survival time, dose: 300.0 mg/kg/injection, schedule: Q07DX Z (sc), vehicle: other
  T/C: 121 % of control
endpoint: median survival time, dose: 300.0 mg/kg/injection, schedule: Q## X Z (sc), vehicle: other
  T/C: 157 % of control
endpoint: median survival time, dose: 360.0 mg/kg/injection, schedule: Q01DX Z (oral), vehicle: methylcellulose (MC)
  T/C: 122 % of control
endpoint: median survival time, dose: 500.0 mg/kg/injection, schedule: Q01DX Z (oral), vehicle: other
  T/C: 120 % of control
